The experiment deals with Human CARM1 (PRMT4) (Homo sapiens (Human), UniProt Q86X55). As to the kind of experiment: CARM1 enzyme assay on peptide substrate (3H-SAM Flashplate). To be noted: Biochemical potencies, classification codes; read-out: Biochem IC50. The text has this:
S-adenosylmethionine (SAM), S-adenosylhomocysteine (SAH), bicine, Tween20, dimethylsulfoxide (DMSO), bovine skin gelatin (BSG), sodium butyrate and Tris(2-carboxyethyl)phosphine hydrochloride solution (TCEP) were purchased from Sigma-Aldrich at the highest level of purity possible. ^3H-SAM was purchase from American Radiolabeled Chemicals with a specific activity of 80 Ci/mmol. 384-well streptavidin Flashplates were purchased from PerkinElmer.
Peptide representative of human histone H3 residues 16-30 was synthesized with an N-terminal linker-affinity tag motif and a C-terminal amide cap by 21st Century Biochemicals. […] The sequence was Biot-Ahx-[…]-amide and contained a monomethylated arginine at position 26 (SEQ ID NO.:1).
The gene sequence encoding isoform1 containing a deletion of amino acids 539-561 was amplified subsequently and subcloned into pFastBacMam (Viva Biotech).
Recombinant baculovirus were generated according to Bac-to-Bac kit instructions (Life Technologies). Protein over-expression was accomplished by infecting exponentially growing HEK 293F cell culture at 1.3×10^6cell/ml with virus (MOI=10) in the presence of 8 mM sodium butyrate. Infections were carried out at 37° C. for 48 hours, harvested by centrifugation, and stored at −80° C. for purification.
Expressed full-length human Flag- and His-tagged CARM1 protein was purified from cell paste by anti-flag M2 affinity chromatography with resin equilibrated with buffer containing 20 mM Tris, 150 mM NaCl, 5% glycerol, pH 7.8. Column was washed with 500 mM NaCl in buffer A and Flag-CARM1-His was eluted with 200 ug/ml FLAG peptide in buffer A. Pooled fractions were dialyzed in 20 mM Tris, 150 mM NaCl, 5% glycerol and 1 mM DTT, pH 7.8.
The assays were all performed in a buffer consisting of 20 mM Bicine (pH=7.6), 1 mM TCEP, 0.005% BSG, and 0.002% Tween 20, prepared on the day of use. Compounds in 100% DMSO (1 ul) were spotted into a polypropylene 384-well V-bottom plates (Greiner) using a Platemate Plus outfitted with a 384-channel head (Thermo Scientific). DMSO (1 ul) was added to Columns 11, 12, 23, 24, rows A-H for the maximum signal control and 1 ul of SAH, a known product and inhibitor of CARM1, was added to columns 11, 12, 23, 24, rows I-P for the minimum signal control. A cocktail (40 ul) containing the CARM1 enzyme was added by Multidrop Combi (Thermo-Fisher). The compounds were allowed to incubate with CARM1 for 30 min at room temperature, then a cocktail (10 ul) containing ^3H-SAM and peptide was added to initiate the reaction (final volume=51 ul). The final concentrations of the components were as follows: CARM1 was 0.25 nM, ^3H-SAM was 30 nM, peptide was 250 nM, SAH in the minimum signal control wells was 1 mM, and the DMSO concentration was 2%. The assays were stopped by the addition of non-radiolabeled SAM (10 ul) to a final concentration of 300 uM, which dilutes the ^3H-SAM to a level where its incorporation into the peptide substrate is no longer detectable. 50 ul of the reaction in the 384-well polypropylene plate was then transferred to a 384-well Flashplate and the biotinylated peptides were allowed to bind to the streptavidin surface for at least 1 hour before being washed once with 0.1% Tween20 in a Biotek ELx405 plate washer. The plates were then read in a PerkinElmer TopCount plate reader to measure the quantity of ^3H-labeled peptide bound to the Flashplate surface, measured as disintegrations per minute (dpm) or alternatively, referred to as counts per minute (cpm).
where dpm=disintegrations per minute, cmpd=signal in assay well, and min and max are the respective minimum and maximum signal controls.
where top and bottom are the normally allowed to float, but may be fixed at 100 or 0 respectively in a 3-parameter fit. The Hill Coefficient normally allowed to float but may also be fixed at 1 in a 3-parameter fit. Y is the % inhibition and X is the compound concentration.
Human CARM1 (PRMT4), sequence (Q86X55 other isoform, or with tags, fused parts or gaps isoform Q86X55-1): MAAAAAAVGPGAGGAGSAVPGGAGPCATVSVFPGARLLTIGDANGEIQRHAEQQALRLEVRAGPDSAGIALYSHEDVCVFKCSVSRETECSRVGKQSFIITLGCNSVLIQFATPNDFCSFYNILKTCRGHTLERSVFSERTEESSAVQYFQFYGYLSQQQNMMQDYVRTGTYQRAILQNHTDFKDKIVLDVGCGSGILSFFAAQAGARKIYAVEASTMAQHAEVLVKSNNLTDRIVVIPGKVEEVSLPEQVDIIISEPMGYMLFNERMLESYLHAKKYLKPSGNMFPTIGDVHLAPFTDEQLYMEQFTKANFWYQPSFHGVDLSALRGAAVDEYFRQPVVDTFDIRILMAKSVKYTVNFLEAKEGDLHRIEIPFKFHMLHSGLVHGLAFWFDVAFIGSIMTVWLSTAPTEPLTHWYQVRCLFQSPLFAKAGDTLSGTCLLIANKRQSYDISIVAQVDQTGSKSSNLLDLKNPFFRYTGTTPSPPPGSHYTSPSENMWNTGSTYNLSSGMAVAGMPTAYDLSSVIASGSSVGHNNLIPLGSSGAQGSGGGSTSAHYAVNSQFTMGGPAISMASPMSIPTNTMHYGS
For the molecule `CNCC(O)COc1cccc(-c2nc(-c3ccncc3)cc(N(C)C3CCOCC3)n2)c1` (stereo not shown) [Example 1-1], the IC50 was below 100 nM.

On to `CNCC(O)COc1cccc(-c2nc(-c3c(C)noc3C)cc(N(C)C3CCOCC3)n2)c1` (stereo not shown) [Example 1-1a], for which the IC50 is below 100 nM.

As for `CNCC(O)COc1cccc(-c2nc(NC3CNC3)c(C)c(-c3c(C)noc3C)n2)c1` (stereo not shown) [Example 1-3], the IC50 was below 100 nM.

Take `CNCC(O)COc1cccc(-c2cc(N(C)C3CCOCC3)nc(-c3ccncc3)n2)c1` (stereo not shown) [Example 2-1]: the IC50 is below 100 nM.

Regarding `CCc1nc(-c2cccc(OCC(O)CNC)c2)cc(N(C)C2CCOCC2)n1` (stereo not shown) [Example 2-2], the IC50 is below 100 nM.

Turning to `CNCC(O)COc1ccc(Cl)c(-c2nc(NC[C@H]3COCCN3C3COC3)c(C)c(-c3c(C)noc3C)n2)c1` (stereo partly shown) [Example 2-3], the IC50 was below 100 nM.

On to `CNCC(O)COc1cccc(-c2nc(N[C@@H]3CCOC3)c(C)c(N3CCOCC3)n2)c1` (stereo partly shown) [Example 3-1], for which the IC50 is below 100 nM.

Consider `CNCC(O)COc1cccc(-c2nc(-c3c(C)noc3C)cc(-c3c(C)noc3C)n2)c1` (stereo not shown) [Example 3-1a], for which the IC50 is below 100 nM.

For the molecule `CNCC(O)COc1cccc(-c2nc(NC3CC(F)C3)c(C)c(-c3c(C)noc3C)n2)c1` (stereo not shown) [Example 3-3], the IC50 is below 100 nM.

For the molecule `CNCC(O)COc1cccc(-c2nccc(NC3CCOCC3)n2)c1` (stereo not shown) [Example 4-1], the IC50 was above 10000 nM.

On to `CNCC(O)COc1cc(Cl)cc(-c2nc(-c3c(C)noc3C)cc(-c3c(C)noc3C)n2)c1` (stereo not shown) [Example 4-1a], for which the IC50 is below 100 nM.

With `CNCC(O)COc1cccc(-c2cc(N(C)C3CCOCC3)nc(C3CC3)n2)c1` (stereo not shown) [Example 4-2], the IC50 is below 100 nM.

As for `CNCC(O)COc1ccc(Cl)c(-c2nc(N[C@H]3CCN(C(=O)OC)C[C@H]3F)c(C)c(-c3c(C)noc3C)n2)c1` (stereo partly shown) [Example 4-3], the IC50 is below 100 nM.

For the molecule `CNCC(O)COc1cccc(-c2nc(-c3c(C)noc3C)cc(N(C)CCC#N)n2)c1` (stereo not shown) [Example 5-1a], the IC50 is below 100 nM.

Consider `C=C(C)c1nc(-c2cccc(OCC(O)CNC)c2)cc(N(C)C2CCOCC2)n1` (stereo not shown) [Example 5-2], for which the IC50 is below 100 nM.

Turning to `CNCC(O)COc1cccc(-c2nc(NC3(CO)CC3)c(C)c(-c3c(C)noc3C)n2)c1` (stereo not shown) [Example 5-3], the IC50 is below 100 nM.

In the case of `CNCC(O)COc1cccc(-c2nc(NC3CCOCC3)c(C)c(-c3c(C)noc3C)n2)c1` (stereo not shown) [Example 6-1a], the IC50 was below 100 nM.

Turning to `CNCC(O)COc1cccc(-c2cc(N(C)C3CCOCC3)nc(C(C)C)n2)c1` (stereo not shown) [Example 6-2], the IC50 was below 100 nM.

In the case of `CNCC(O)COc1ccc(Cl)c(-c2nc(NC[C@H]3CCCO3)c(C)c(-c3c(C)noc3C)n2)c1` (stereo partly shown) [Example 6-3], the IC50 was below 100 nM.

Take `CNCC(O)COc1cc(Cl)cc(-c2nc(NC3CCOCC3)cc(-c3c(C)noc3C)n2)c1` (stereo not shown) [Example 7-1a]: the IC50 is below 100 nM.

In the case of `CNCC(O)COc1ccc(Cl)c(-c2nc(NC[C@@H]3CCCO3)c(C)c(-c3c(C)noc3C)n2)c1` (stereo partly shown) [Example 7-3], the IC50 is below 100 nM.

Consider `CNCC(O)COc1cccc(-c2nc(-c3cncnc3)cc(-c3c(C)noc3C)n2)c1` (stereo not shown) [Example 8-1a], for which the IC50 was below 100 nM.

Turning to `CNCC(O)COc1cccc(-c2cc(N(C)C3CCOCC3)nc(N(C)C)n2)c1` (stereo not shown) [Example 8-2], the IC50 is below 100 nM.

Consider `CNCC(O)COc1cccc(-c2nc(NC3(C(F)(F)F)CC3)c(C)c(-c3c(C)noc3C)n2)c1` (stereo not shown) [Example 8-3], for which the IC50 was below 100 nM.

On to `CNCC(O)COc1cccc(-c2nc(C3=CCCC3)cc(N(C)CCC#N)n2)c1` (stereo not shown) [Example 9-1], for which the 50% inhibitory concentration (IC50) was below 100 nM.

With `CNCC(O)COc1cc(Cl)cc(-c2nc(Nc3cncnc3)cc(-c3c(C)noc3C)n2)c1` (stereo not shown) [Example 9-1a], the IC50 is below 100 nM.

Take `CNCC(O)COc1ccc(Cl)c(-c2nc(NCC3CCOCC3)c(C)c(-c3c(C)noc3C)n2)c1` (stereo not shown) [Example 9-3]: the IC50 is below 100 nM.

Take `CNCC(O)COc1cccc(-c2nc(C3CC3)cc(N(C)C3CCOCC3)n2)c1` (stereo not shown) [Example 10-1]: the IC50 is below 100 nM.

In the case of `CNCC(O)COc1cc(Cl)cc(-c2nc(N[C@@H]3CCOC3)cc(-c3c(C)noc3C)n2)c1` (stereo partly shown) [Example 10-1a], the IC50 was below 100 nM.

Regarding `CNCC(O)COc1cccc(-c2nc(N[C@H]3CCC[C@@H](O)C3)c(C)c(-c3c(C)noc3C)n2)c1` (stereo partly shown) [Example 10-3], the IC50 was below 100 nM.

As for `C=C(C)c1cc(N(C)C2CCOCC2)nc(-c2cccc(OCC(O)CNC)c2)n1` (stereo not shown) [Example 11-1], the IC50 is below 100 nM.

Consider `CNCC(O)COc1cccc(-c2nc(N[C@@H]3CCOC3)cc(-c3c(C)noc3C)n2)c1` (stereo partly shown) [Example 11-1a], for which the IC50 was below 100 nM.

`CNCC(O)COc1cccc(-c2nc(N[C@@H]3CCOC3)c(C)c(N3CC4CN(S(C)(=O)=O)CC4C3)n2)c1` (stereo partly shown) [Example 11-3]: the IC50 was below 100 nM.

Regarding `CNCC(O)COc1cc(Cl)cc(-c2nc(N[C@H]3CCOC3)cc(-c3c(C)noc3C)n2)c1` (stereo partly shown) [Example 12-1a], the IC50 was below 100 nM.

For the molecule `CNCC(O)COc1cccc(-c2nc(-c3c(C)noc3C)c(C)c(N3CC(NC(=O)OC)C3)n2)c1` (stereo not shown) [Example 12-3], the IC50 was below 100 nM.

As for `CNCC(O)COc1cccc(-c2nc(C(C)C)cc(N(C)C3CCOCC3)n2)c1` (stereo not shown) [Example 13-1], the IC50 was below 100 nM.

Regarding `CNCC(O)COc1cccc(-c2nc(N[C@H]3CCOC3)cc(-c3c(C)noc3C)n2)c1` (stereo partly shown) [Example 13-1a], the half-maximal inhibitory concentration (IC50) was below 100 nM.

For the molecule `CNCC(O)COc1cccc(-c2nc(-c3c(C)noc3C)c(C)c(N3CC(NC(=O)N(C)C)C3)n2)c1` (stereo not shown) [Example 13-3], the IC50 is below 100 nM.

Regarding `NCC(O)COc1cccc(-c2nc(N3CCOCC3)cc(N3CCOCC3)n2)c1` (stereo not shown) [Example 14-1], the IC50 is below 100 nM.

For the molecule `CNCC(O)COc1cccc(-c2cc(N(C)C3CCOCC3)nc(-c3cccnc3)n2)c1` (stereo not shown) [Example 14-2], the IC50 was below 100 nM.

Consider `CCC(=O)NC1CN(c2nc(-c3cccc(OCC(O)CNC)c3)nc(-c3c(C)noc3C)c2C)C1` (stereo not shown) [Example 14-3], for which the IC50 was below 100 nM.

`CNCC(O)COc1cccc(-c2nc(N(C)C)cc(N(C)C3CCOCC3)n2)c1` (stereo not shown) [Example 15-1]: the IC50 was below 100 nM.

For the molecule `Cc1noc(C)c1-c1cc(NC2CCOCC2)nc(-c2cccc(OC[C@@H](O)CN)c2)n1` [Example 15-1a], the IC50 is below 100 nM.

Consider `CNCC(O)COc1cccc(-c2cc(N(C)C3CCOCC3)nc(N3CCOCC3)n2)c1` (stereo not shown) [Example 15-2], for which the IC50 is below 100 nM.

In the case of `CNCC(O)COc1cccc(-c2nc(-c3c(C)noc3C)c(C)c(N3CCC[C@H](N(C)C(=O)OC)C3)n2)c1` (stereo partly shown) [Example 15-3], the IC50 is below 100 nM.

In the case of `Cc1noc(C)c1-c1cc(NC2CCOCC2)nc(-c2cccc(OC[C@H](O)CN)c2)n1` [Example 16-1a], the IC50 is below 100 nM.

Take `CNCC(O)COc1cccc(-c2cc(N(C)C3CCOCC3)nc(-c3cnc4[nH]ccc4c3)n2)c1` (stereo not shown) [Example 16-2]: the 50% inhibitory concentration (IC50) was below 100 nM.

Take `CCS(=O)(=O)N1CC2(CN(c3nc(-c4cccc(OCC(O)CNC)c4)nc(-c4c(C)noc4C)c3C)C2)C1` (stereo not shown) [Example 16-3]: the IC50 is below 100 nM.

On to `CNC[C@H](O)COc1cccc(-c2nc(NC3CCOCC3)cc(-c3c(C)noc3C)n2)c1` [Example 17-1a], for which the IC50 is below 100 nM.

For the molecule `CNCC(O)COc1cccc(-c2nc(-c3c(C)noc3C)c(C)c(N3CCN(C(=O)OC)C(C(F)F)C3)n2)c1` (stereo not shown) [Example 17-3], the IC50 is below 100 nM.

Regarding `CNCC(O)COc1cccc(-c2nc(-c3cncnc3)cc(N(C)CCC#N)n2)c1` (stereo not shown) [Example 18-1], the IC50 was below 100 nM.

Turning to `CNC[C@@H](O)COc1cccc(-c2nc(NC3CCOCC3)cc(-c3c(C)noc3C)n2)c1` [Example 18-1a], the IC50 is below 100 nM.

Values taken from patent US20230279020A9, “CARM1 INHIBITORS AND USES THEREOF” (Epizyme, Inc., priority 2013, published 2023).
